The values below come from patent US11376277B2, “Synergistic medicinal compositions for treating dysfunctional D-serine signaling” (CELAGENEX RESEARCH (INDIA) PVT. LTD., priority 2020, dated 2022).

Read-outs that look alike come from different tables or passages of the source.

What is called Cmax is the peak of the concentration-time curve. Broadly, the Tmax is the time from dosing to the highest level.

Series [1] deals with T1, human SR (Homo sapiens, UniProt Q9GZT4).
T1 sequence (Q9GZT4 1-340): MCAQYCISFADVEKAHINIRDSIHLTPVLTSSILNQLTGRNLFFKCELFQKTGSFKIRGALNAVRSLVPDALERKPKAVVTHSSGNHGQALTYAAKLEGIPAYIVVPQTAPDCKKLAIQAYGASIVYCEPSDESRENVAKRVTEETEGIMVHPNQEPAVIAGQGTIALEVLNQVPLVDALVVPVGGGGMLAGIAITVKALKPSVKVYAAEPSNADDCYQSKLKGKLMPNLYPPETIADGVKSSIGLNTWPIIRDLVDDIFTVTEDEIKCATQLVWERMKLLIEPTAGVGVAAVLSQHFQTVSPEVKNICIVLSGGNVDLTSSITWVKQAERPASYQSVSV
The note with it: cited from earlier work.

Series [2] has as its system D-serine. Put plainly: Pharmacokinetics profile of D-serine in rat model, brain tissue sample. The following applies: for ln(C) / Conc / AUC: D-serine in rat brain tissue; for Conc: doses per Table 1. The procedure: (§1) To assess and compare the pharmacokinetics profile of D-serine in rat model.
(§2) Six groups were divided into 4 sets of 3 rats each/subset for bleeding and organ (brain) collection—Total 72 rats
Organ (Brain) collection: Rats were sacrificed each time point (3 rats/group/time point) by decapitation at 0, 2, 6 or 10 hr post dose. Brain was removed and cerebellum dissected on ice. Tissue samples were frozen on dry ice and stored at −80° C. until analysis.
(§3) Supernatant was filtered with 0.2 micron amicon syringe filter (Millipore, Hessen, Germany), then directly transferred into auto sampler vials
(§4) An Accela™ ultra-high performance liquid chromatography (UHPLC) system (Thermo Fisher, Waltham, USA), coupled online via heated electrospray ionization source (HESI) with a Q-Exactive-Orbitrap mass spectrometer (Thermo Fisher), was employed for global metabolomics profiling with 1 μL sample injection volume. The metabolites were profiled using a C18 Hypersil Gold column (1.9 μm, 2.1×150 mm, Thermo).
(§5) The temperature of column oven was set at 35° C. and the sample manager was maintained at 4° C. The eluents acetonitrile and water containing 0.1% formic acid were employed in the electrospray ionization-positive (ESI+) mode.
(§6) The area under the plasma concentration time curve (AUC) value was calculated to the last quantifiable sample (AUClast) by using the log-linear trapezoidal rule.

The subject of series [3] is D-serine. Put plainly: Pharmacokinetics profile of D-serine in rat model, blood plasma. The note with it: for ln(C) / Conc / AUC: D-serine in rat plasma; for Conc: doses per Table 1. The procedure:
as §1, §2
Plasma was separated using refrigerated centrifuge & stored in −80° C. before analysis. Blood was collected at time point 0, 2, 6 and 10 hrs at least from 3 rats/group/time point.
as §3, §4, §5, §6

Setting [4] is: D-serine, rat brain tissue, non-compartmental analysis.
The mark [5] stands for this setting: D-serine, rat plasma, non-compartmental analysis.

`[Ca+2]` [Ca′]: the “activity of the enzyme relative to purified human SR without divalent cation supplementation” value in series [1] (@1 mM) was 134%.

Take “magnesium 2-acetamidoethanesulfonate dihydrate [Test I]”: the “ln(C)” value in series [2] (Time 0 (pre-dose)) is on record as −0.8701; in series [2] (Time 2 hr) it was −0.981; in series [2] (Time 6 hr) it was −1.151; in series [2] (Time 10 hr), −1.332; in series [3] (Time 0 (pre-dose)) it was −0.3877; in series [3] (Time 2 hr), −0.4986. In addition, the “ln(C)” value is −0.6686 in series [3] (Time 6 hr) and −0.85 in series [3] (Time 10 hr). The Conc in series [2] (Time 0 (pre-dose)) is given as 0.4189; in series [2] (Time 2 hr), 0.3749; in series [2] (Time 6 hr) it was 0.3163; in series [2] (Time 10 hr) it was 0.2638; in series [3] (Time 0 (pre-dose)) it was 0.6786; in series [3] (Time 2 hr), 0.6074. Besides, the Conc is given as 0.5124 in series [3] (Time 6 hr) and 0.4274 in series [3] (Time 10 hr). The AUC in series [2] (cumulative to Time 2 hr) is 0.7938; in series [2] (cumulative to Time 6 hr), 2.176; in series [3] (cumulative to Time 2 hr), 1.286; in series [3] (cumulative to Time 6 hr) it was 3.5256. Also, the “AUC 0-inf_obs” value in series [2] (setting [4]) is 7342 ng·h/mL; in series [3] (setting [5]), 11130 ng·h/mL. Also, the figures for the “AUMC 0-inf_obs” value in series [2] (setting [4]) and in series [3] (setting [5]) were 211.9 μg/ml*h^2 and 343.2 μg/ml*h^2, respectively. The Cl/F_obs is listed as 3.872 (mg)/(μg/ml)/h in series [2] (setting [4]) and 2.39 (mg)/(μg/ml)/h in series [3] (setting [5]). In addition, the Cmax in series [2] (setting [4]) is 418.9 ng/mL; in series [3] (setting [5]) it was 678.6 ng/mL. In addition, the “MRT 0-inf_obs” value in series [2] (setting [4]) and in series [3] (setting [5]) was 22.68 h throughout. Also, the Tlag in series [2] (setting [4]) and in series [3] (setting [5]) was 0 h each time. Moreover, the Tmax in series [2] (setting [4]) and in series [3] (setting [5]) was 0 h in each case. The Vz/F_obs in series [2] (setting [4]) is recorded as 88.12 (mg)/(μg/ml); in series [3] (setting [5]), 54.4 (mg)/(μg/ml). For the same molecule, the t1/2 in series [2] (setting [4]) and in series [3] (setting [5]) was 15.78 h each time. The “AUC 0-t” value in series [2] (D-serine, rat brain tissue, non-compartmental analysis, 0-10 hr) came out at 2137 ng·h/mL; in series [3] (D-serine, rat plasma, non-compartmental analysis, 0-10 hr), 3405.2 ng·h/mL. In addition, the Lambda_z was 0.04393 L/h in series [2] (D-serine, rat brain tissue, non-compartmental analysis, extravascular input) and 0.04393 L/h in series [3] (D-serine, rat plasma, non-compartmental analysis, extravascular input). Also, the “AUC values of D-serine” value in series [2] (rat brain tissue samples, G4 36.17 mg/kg, G5 31.01 mg/kg) was “increased”; in series [3] (rat plasma, G4 36.17 mg/kg, G5 31.01 mg/kg), “increased”.

Consider `N[C@@H](COS(=O)(=O)O)C(=O)O` [L-Serine 0-sulfate, L-Serine O-sulfate, reference compound], for which, in series [3] (rat, treated with serine racemase inhibitor, 1.86 mg/kg), the D-Serine over control entry is given as “substantially reduced”.

For the molecule `[Mg+2]` [Mg^2+], in series [1] (@10 μM), the “activity of the enzyme relative to purified human SR without divalent cation supplementation” value was 112%.

For `[Mn+2]` [Mn^2+], the “activity of the enzyme relative to purified human SR without divalent cation supplementation” value in series [1] (@10 μM) is on record as 153%.
